Measurements taken from patent US7713963B2, “Acylated indanyl amines and their use as pharmaceuticals” (sanofi-aventis Deutschland GmbH, priority 2001, dated 2010).
Where two headings read alike, the source gives them in different places.

Tested on: eNOS promoter
Experiment: Activation of eNOS transcription (eNOS promoter-luciferase reporter gene assay)
Format: cell-based, human
Conditions: for maximal fold induction: read-out: TIR (max)
Protocol: Measurement of activation of eNOS transcription Activation of eNOS transcription was measured as described in detail in Li et al. “Activation of protein kinase C alpha and/or epsilon enhances transcription of the human endothelial nitric oxide synthase gene”, Mol. Pharmacol. 1998; 53: 630-637. Briefly, a 3.5 kB long fragment 5′ of the starting codon of the eNOS gene was cloned, sequenced and cloned in firefly luciferase expression plasmids to monitor activation of the eNOS promoter by reporter gene activity. A human endothelial cell line stable transfected and expressing this promoter-reporter construct was used for compound testing. Cells were incubated for 18 h with compounds. All compounds were dissolved in sterile DMSO. A final concentration of 0.5% DMSO in complete medium was allowed. Induction of reporter gene expression in these cells was measured using a standard luciferase assay system (Promega, Cat. No E150) according to the manufacturer's instructions. Luciferase induction in cells incubated with compounds were compared to those incubated with solvent alone. The ratio of both activities (transcription induction ratio, TIR) was plotted as a function of compound concentration. […] EC50 values of transcription induction ratios as a function of compound concentration were determined graphically.

[1] = Homo sapiens, 18 h, maximum transcription induction ratio (luciferase with compound / solvent alone), 18 h incubation
[2] = Homo sapiens, Endothelial cell, 18 h, EC50 of transcription induction ratio, determined graphically, human endothelial cell line, 18 h incubation, read-out: EC-50
[3] = Homo sapiens, Endothelial cell, 18 h
[4] = EC50 of transcription induction ratio, determined graphically, human endothelial cell line, 18 h incubation, read-out: EC-50
[5] = maximum transcription induction ratio (luciferase with compound / solvent alone), 18 h incubation

| SMILES | EC50 [2] | maximal fold induction [1] | further results |
| --- | --- | --- | --- |
| O=C(NC1Cc2ccccc2C1)c1cc2cc(Cl)ccc2[nH]1 [Compound 315, 5-CHLORO-1H-INDOLE-2-CARBOXYLIC ACID INDAN-2-YLAMIDE] | 16 µM | 2.2 |  |
| O=C(NC1Cc2ccccc2C1)c1cccc(C(=O)c2ccccc2)c1 [Compound 287, 3-BENZOYL-N-INDAN-2-YL-BENZAMIDE] | 13 µM | 2.9 |  |
| Cc1nc(C)c(C(=O)NC2Cc3ccccc3C2)s1 [Compound 233, 2,4-DIMETHYL-THIAZOLE-5-CARBOXYLIC ACID INDAN-2-YLAMIDE] | 13 µM | 2.5 |  |
| O=C(NC1Cc2cccc(I)c2C1)c1ccc(F)cc1 (centres unmarked) [Compound 408, 4-FLUORO-N-(4-IODO-INDAN-2-YL)-BENZAMIDE] | 11 µM | 2.5 |  |
| O=C(NC1Cc2ccccc2C1)c1ccc(Cl)c(Cl)c1 [Compound 314, 3,4-DICHLORO-N-INDAN-2-YL-BENZAMIDE] | 12 µM | 2.2 |  |
| CSc1ccc(C(=O)NC2Cc3ccccc3C2)cc1 [Compound 292, N-INDAN-2-YL-4-METHYLSULFANYL-BENZAMIDE] |  |  | maximal fold induction (Homo sapiens, 18 h): 2.9; EC50 [3]: 0.039 µM |
| Nc1nccnc1C(=O)NC1Cc2ccccc2C1 [Compound 185, 3-AMINO-PYRAZINE-2-CARBOXYLIC ACID INDAN-2-YLAMIDE] | 27 µM | 2.4 |  |
| O=C(NC1Cc2cccc(C=CC(=O)N3CCOCC3)c2C1)c1ccc(F)cc1 (centres unmarked) [Compound 412, 4-FLUORO-N-[4-(3-MORPHOLIN-4-YL-3-OXO-PROPENYL)-NDAN-2-YL]-BENZAMIDE] |  |  | EC50 [4]: 1 µM; TIR (max) [5]: 2.5 |
| O=C(NC1Cc2ccccc2C1)c1cccc(-c2cccnc2)c1 [Compound 432, N-INDAN-2-YL-3-PYRIDIN-3-YL-BENZAMIDE] | 9.6 µM | 2.5 |  |
| O=C(N[C@@H]1Cc2ccccc2[C@H]1O)c1ccc(F)cc1 (relative stereo) [Compound 8, 4-FLUORO-N-(TRANS-1-HYDROXY-INDAN-2-YL)-BENZAMIDE] | 8 µM | 2.2 |  |
| O=C(NC1Cc2ccccc2C1)c1c(F)ccc(F)c1F [Compound 274, 2,3,6-TRIFLUORO-N-INDAN-2-YL-BENZAMIDE] | 21 µM |  |  |
| O=C(NC1Cc2ccccc2C1)c1cccc(Cl)c1 [Compound 283, 3-CHLORO-N-INDAN-2-YL-BENZAMIDE] | 15 µM | 2.5 |  |
| CC(=O)Oc1cc(C)ccc1C(=O)NC1Cc2ccccc2C1 [Compound 7, ACETIC ACID 2-(INDAN-2-YL-CARBAMOYL)-5-METHYL-PHENYLESTER] |  |  | maximal fold induction (Homo sapiens, 18 h): 2.57; EC50 [3]: 0.1 µM |
| Cc1cc(C)c(C(=O)NC2Cc3ccccc3C2)cn1 [Compound 189, N-INDAN-2-YL-4,6-DIMETHYL-NICOTINAMIDE] | 10 µM | 2.2 |  |
| CS(=O)(=O)Nc1cccc(C(=O)NC2Cc3ccccc3C2)c1 [Compound 388, N-INDAN-2-YL-3-METHANE SULFONYLAMINO-BENZAMIDE] |  |  | EC50 [4]: 1.1 µM; TIR (max) [5]: 2.4 |
| O=C(NC1Cc2ccccc2C1)c1ccc(-n2ccnc2)cc1 [Compound 328, 4-IMIDAZOL-1-YL-N-INDAN-2-YL-BENZAMIDE] | 24 µM | 2.4 |  |
| O=C(NC1Cc2ccccc2C1)c1ccc(-c2ccccn2)cc1 [Compound 436, N-INDAN-2-YL-4-PYRIDIN-2-YL-BENZAMIDE] | 18 µM | 2.6 |  |
| CCCc1c(C(=O)NC2Cc3ccccc3C2)cnn1-c1ccc(Cl)cc1 [Compound 322, 1-(4-CHLORO-PHENYL)-5-PROPYL-1H-PYRAZOLE-4-CARBOXYLIC ACID INDAN-2-YLAMIDE] | 23 µM | 2.3 |  |
| O=C(NC1Cc2ccccc2C1)c1ccc(-c2cccnc2)cc1 [Compound 435, N-INDAN-2-YL-4-PYRIDIN-3-YL-BENZAMIDE] | 14 µM | 2.5 |  |
| Cc1cccc(C(=O)NC2Cc3ccccc3C2)c1F [Compound 249, 2-FLUORO-N-INDAN-2-YL-3-METHYL-BENZAMIDE] | 15 µM | 2.5 |  |
| O=C(NC1Cc2ccccc2C1)c1c(F)ccc(F)c1Cl [Compound 360, 2-CHLORO-3,6-DIFLUORO-N-INDAN-2-YL-BENZAMIDE] | 10 µM | 2.6 |  |
| CC1=C(C(=O)NC2Cc3ccccc3C2)Cc2ccccc21 [Compound 251, 3-METHYL-1H-INDENE-2-CARBOXYLIC ACID INDAN-2-YLAMIDE] | 13 µM | 2.6 |  |
| Cc1cc(C)c(C(=O)NC2Cc3ccccc3C2)c(N)n1 [Compound 187, 2-AMINO-N-INDAN-2-YL-4,6-DIMETRYL-NICOTINAMIDE] |  |  | EC50 [4]: 4.4 µM; TIR (max) [5]: 2.5 |
| O=C(NC1Cc2ccccc2C1)c1cccc(Br)c1 [Compound 382, 3-BROMO-N-INDAN-2-YL-BENZAMIDE] | 21 µM | 2.5 |  |

More lines, main results first:

| EC50 [2] | SMILES | maximal fold induction [1] | further results |
| --- | --- | --- | --- |
| 2.6 µM | Cc1ccc(C)n1-c1ccc(C(=O)NC2Cc3ccccc3C2)cc1 [Compound 327, 4-(2,5-DIMETHYL-PYRROL-1-YL)-N-INDAN-2-YL-BENZAMIDE] | 2.5 |  |
| 2.5 µM | O=C(NC1Cc2ccccc2C1)c1cccc(F)c1 [Compound 24, 3-FLUORO-N-INDAN-2-YL-BENZAMIDE] | 2.88 |  |
| 3.7 µM | Nc1c(C(=O)NC2Cc3ccccc3C2)cnn1-c1ccccc1 [Compound 427, 5-AMINO-1-PHENYL-1H-PYRAZOLE-4-CARBOXYLIC ACID INDAN-2-YLAMIDE] | 2.5 |  |
| 0.197 µM | O=C(NC1Cc2ccccc2C1)c1ccc(Br)cc1Cl [Compound 317, 4-BROMO-2-CHLORO-N-INDAN-2-YL-BENZAMIDE] | 2.9 |  |
| 5.8 µM | O=C(NC1Cc2ccccc2C1)c1cc(F)c(Cl)cc1Cl [Compound 262, 2,4-DICHLORO-5-FLUORO-N-INDAN-2-YL-BENZAMIDE] | 2.8 |  |
| 4.3 µM | Cc1c(Cl)cccc1C(=O)NC1Cc2ccccc2C1 [Compound 257, 3-CHLORO-N-INDAN-2-YL-2-METHYL-BENZAMIDE] | 2.7 |  |
| 0.238 µM | COc1ccc(C(=O)NC2Cc3ccccc3C2)cc1 [Compound 291, N-INDAN-2-YL-4-METHOXY-BENZAMIDE] | 2.8 |  |
| 4.7 µM | O=C(NC1Cc2ccccc2C1)c1c(F)cccc1Br [Compound 358, 2-BROMO-6-FLUORO-N-INDAN-2-YL-BENZAMIDE] | 2.5 |  |
| 0.523 µM | O=C(NC1Cc2ccccc2C1)c1ccc(Br)cc1F [Compound 350, 4-BROMO-2-FLUORO-N-INDAN-2-YL-BENZAMIDE] | 2.9 |  |
| 0.11 µM | COC(=O)c1cccc(C(=O)NC2Cc3ccccc3C2)c1 [Compound 243, N-INDAN-2-YL-ISOPHTHALAMIC ACID METHYL ESTER] | 2.8 |  |
| 2.1 µM | Cc1cc(Br)c(C(=O)NC2Cc3ccccc3C2)s1 [Compound 364, 3-BROMO-5-METHYL-THIOPHENE-2-CARBOXYLIC ACID INDAN-2-YLAMIDE] | 2.9 |  |
| 1.7 µM | O=C(NC1Cc2ccccc2C1)c1ccc(Oc2ccccc2)cc1 [Compound 32, 4-PHENOXY-N-INDAN-2-YL-BENZAMIDE] | 4 |  |
| 0.7 µM | Cc1cc(C(=O)NC2Cc3ccccc3C2)c(C)[nH]1 [Compound 216, 2,5-DIMETHYL-1H-PYRROLE-3-CARBOXYLIC ACID INDAN-2-YLAMIDE] | 2.8 |  |
| 0.4 µM | O=C(NC1Cc2ccccc2C1)c1ccc(Cl)cc1 [Compound 69, 4-CHLORO-N-INDAN-2-YL-BENZAMIDE] | 4.2 |  |
| 2.3 µM | CC(C)(C)C(=O)Nc1cccc(C(=O)NC2Cc3ccccc3C2)c1 [Compound 380, 3-(2,2-DIMETHYL-PROPIONYLAMINO)-N-INDAN-2-YL-BENZAMIDE] | 2.6 |  |
| 0.309 µM | O=C(NC1Cc2ccccc2C1)c1ccc(OCC(F)(F)F)cc1 [Compound 386B, N-INDAN-2-YL-4-(2,2,2-TRIFLUORO-ETHOXY)-BENZAMIDE] | 2.5 |  |
| 0.485 µM | CCNc1ccc(C(=O)NC2Cc3ccccc3C2)cc1 [Compound 268, 4-ETHYLAMINO-N-INDAN-2-YL-BENZAMIDE] | 3 |  |
| 2.6 µM | O=C(NC1Cc2ccccc2C1)c1ccccc1F [Compound 273, 2-FLUORO-N-INDAN-2-YL-BENZAMIDE] | 2.8 |  |
| 6 µM | COc1ccc(C(=O)NC2Cc3ccccc3C2)cc1Cl [Compound 31, 3-CHLORO-4-METHOXY-N-INDAN-2-YL-BENZAMIDE] | 3.05 |  |
| 7.8 µM | Cc1ccc(F)cc1C(=O)NC1Cc2ccccc2C1 [Compound 248, 5-FLUORO-N-INDAN-2-YL-2-METHYL-BENZAMIDE] | 2.8 |  |
| 7 µM | Cc1ccc(C(=O)NC2Cc3ccccc3C2)c(O)c1 [Compound 22, 2-HYDROXY-N-INDAN-2-YL-4-METHYL-BENZAMIDE] | 2.1 |  |
